In data set [1] the test system is Beagle dogs. The data set is described as follows: Intraocular pressure in dogs (pneumatonometry). The data set is classed as in vivo. Conditions: 0.005% topical 25 μL drop, 5 day study. As for the experimental part: (§1) Intraocular pressure studies in dogs involved pneumatonometry performed in conscious, Beagle dogs of both sexes (10-15 kg). The animals remained conscious throughout the study and were gently restrained by hand. Drugs were administered topically to one eye as a 25 μL volume drop, the other eye received 25 μL vehicle (0.1% polysorbate 80:10 mM TRIS) as a control. Proparacaine (0.1%) was used for corneal anesthesia during tonometry. Intraocular pressure was determined just before drug administration and at 2, 4 and 6 hr thereafter on each day of the 5 day study. Drug was administered immediately after the first IOP reading.

Another data set concerns cynomolgus monkeys. The data set can be described thus: Intraocular pressure in cynomolgus monkeys. Format: in vivo. The note with it: 0.005% topical, single dose. On the procedure: as §1
An analogous procedure was carried out with cynomolgus monkeys with measurements at 2, 4, 6, and 24 hours after a single dose.

The subject of data set [2] is Beagle dogs. The data set is described as follows: Ocular surface hyperemia in dogs. Format: in vivo. Conditions: 0.005% topical, score 0.5 trace, 1 mild, 2 moderate, 3 severe. As for the experimental part:
as §1
(§2) Ocular surface hyperemia was visually assessed and scored according to a system typically used clinically.
(§3) Ocular surface hyperemia was evaluated at the same time points as intraocular pressure measurement. It should be noted that untreated dog eyes frequently have a pink/red tone. Thus, values of trace or even mild are not necessarily out of the normal range. A similar procedure was used to determine rabbit hyperemia.

The subject of another data set is rabbit. The data set can be described thus: Ocular surface hyperemia in rabbits. The data set is classed as in vivo. Conditions: 0.005%, score 0.5 trace, 1 mild, 2 moderate, 3 severe. On the procedure: as §2, §3
In the next data set the target is T1, EP4 receptor (Homo sapiens, UniProt P35408).
T1 construct: expressed in transfected cells; membrane fraction
T1 sequence (P35408 whole entry): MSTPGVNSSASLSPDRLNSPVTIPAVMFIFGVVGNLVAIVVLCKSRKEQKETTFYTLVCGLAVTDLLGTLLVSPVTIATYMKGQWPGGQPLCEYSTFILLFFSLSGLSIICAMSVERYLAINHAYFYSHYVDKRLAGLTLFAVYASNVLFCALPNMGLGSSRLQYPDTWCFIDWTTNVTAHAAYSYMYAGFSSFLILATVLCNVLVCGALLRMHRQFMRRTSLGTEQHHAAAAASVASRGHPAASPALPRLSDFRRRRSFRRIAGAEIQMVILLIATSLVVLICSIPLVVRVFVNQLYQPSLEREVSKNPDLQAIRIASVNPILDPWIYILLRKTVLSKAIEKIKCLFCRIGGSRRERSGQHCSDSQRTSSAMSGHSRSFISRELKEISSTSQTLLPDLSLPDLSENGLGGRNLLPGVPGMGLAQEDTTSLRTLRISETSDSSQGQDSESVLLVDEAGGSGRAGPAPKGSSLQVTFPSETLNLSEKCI
The data set is described as follows: Radioligand binding, EP4 receptor. The note with it: [3H]PGE2 competition, HEK-293 membranes. As for the experimental part: (§4) HEK-293 cells stably expressing the human or feline FP receptor, or EP1, EP2, or EP4 receptors are washed with TME buffer, scraped from the bottom of the flasks, and homogenized for 30 sec using a Brinkman PT 10/35 polytron. TME buffer is added to achieve a final 40 ml volume in the centrifuge tubes (the composition of TME is 100 mM TRIS base, 20 mM MgCl2, […]; 10N HCl is added to achieve a pH of 7.4).
(§5) The cell homogenate is centrifuged at 19000 r.p.m. for 20 min at 4° C. using a Beckman Ti-60 rotor. The resultant pellet is resuspended in TME buffer to give a final 1 mg/ml protein concentration, as determined by Biorad assay. Radioligand binding competition assays vs. [^3H—]17 phenyl PGF2α (5 nM) are performed in a 100 μl volume for 60 min. Binding reactions are started by adding plasma membrane fraction. The reaction is terminated by the addition of 4 ml ice-cold TRIS-HCl buffer and rapid filtration through glass fiber GF/B filters using a Brandel cell harvester. The filters are washed 3 times with ice-cold buffer and oven dried for one hour. Non-specific binding is determined with 10 uM unlabeled 17 phenyl PGF2α.
(§6) [^3H—] PGE2 (5 nM; specific activity 180 Ci mmol) is used as the radioligand for EP receptors. Binding studies employing EP1, EP2, EP3, EP4 are performed in duplicate in at least three separate experiments. A 200 μl assay volume is used. Incubations are for 60 min at 25° C. and are terminated by the addition of 4 ml of ice-cold 50 mM TRIS-HCl, followed by rapid filtration through Whatman GF/B filters and three additional 4 ml washes in a cell harvester (Brandel). Non-specific binding is determined with 10^−5M of unlabeled PGE2.

Another data set has as its target T2, hEP4/Gqs5 (Homo sapiens, UniProt P35408).
T2 construct: expressed in transfected cells
The data set is described as follows: FLIPR calcium signal, hEP4/Gqs5. Format: cell-based. The note with it: HEK-293(EBNA) cells, read-out: EP4 Ca2+ EC50. On the procedure:
(§7) HEK-293(EBNA) cells, stably expressing one type or subtype of recombinant human prostaglandin receptors (prostaglandin receptors expressed: hDP/Gqs5; hEP1; hEP2/Gqs5; hEP3A/Gqi5; hEP4/Gqs5; hFP; hIP; hTP), are cultured in 100 mm culture dishes in high-glucose DMEM medium containing 10% fetal bovine serum, 2 mM 1-glutamine, 250 μg/ml geneticin (G418) and 200 μg/ml hygromycin B as selection markers, and 100 units/ml penicillin G, 100 μg/ml streptomycin and 0.25 μg/ml amphotericin B.
(§8) Cells are seeded at a density of 5×10^4 cells per well in Biocoat® Poly-D-lysine-coated black-wall, clear-bottom 96-well plates (Becton-Dickinson) and allowed to attach overnight in an incubator at 37° C. Cells are then washed two times with HBSS-HEPES buffer (Hanks Balanced Salt Solution without bicarbonate and phenol red, 20 mM HEPES, pH 7.4) using a Denley Cellwash plate washer (Labsystems). After 45 minutes of dye-loading in the dark, using the calcium-sensitive dye Fluo-4 AM at a final concentration of 2 μM, plates are washed four times with HBSS-HEPES buffer to remove excess dye leaving 100 μl in each well. Plates are re-equilibrated to 37° C. for a few minutes.
(§9) Cells are excited with an Argon laser at 488 nm, and emission is measured through a 510-570 nm bandwidth emission filter (FLIPR™, Molecular Devices, Sunnyvale, Calif.). Drug solution is added in a 50 μl volume to each well to give the desired final concentration. The peak increase in fluorescence intensity is recorded for each well. On each plate, four wells each serve as negative (HBSS-HEPES buffer) and positive controls (standard agonists: BW245C (hDP); PGE2 (hEP1; hEP2/Gqs5; hEP3A/Gqi5; hEP4/Gqs5); PGF2α (hFP); carbacyclin ([…]); U-46619 (hTP), depending on receptor). The peak fluorescence change in each drug-containing well is then expressed relative to the controls.
Compounds are tested in a high-throughput (HTS) or concentration-response (CoRe) format. In the HTS format, forty-four compounds per plate are examined in duplicates at a concentration of 10^−5 M. To generate concentration-response curves, four compounds per plate are tested in duplicates in a concentration range between 10^−5 and 10^−11 M. The duplicate values are averaged. In either, HTS or CoRe format each compound is tested on at least 3 separate plates using cells from different passages to give an n≧3.

A further data set deals with T3, hEP3A/Gqi5 (Homo sapiens, UniProt P43115).
T3 construct: expressed in transfected cells
T3 sequence (P43115 1-390): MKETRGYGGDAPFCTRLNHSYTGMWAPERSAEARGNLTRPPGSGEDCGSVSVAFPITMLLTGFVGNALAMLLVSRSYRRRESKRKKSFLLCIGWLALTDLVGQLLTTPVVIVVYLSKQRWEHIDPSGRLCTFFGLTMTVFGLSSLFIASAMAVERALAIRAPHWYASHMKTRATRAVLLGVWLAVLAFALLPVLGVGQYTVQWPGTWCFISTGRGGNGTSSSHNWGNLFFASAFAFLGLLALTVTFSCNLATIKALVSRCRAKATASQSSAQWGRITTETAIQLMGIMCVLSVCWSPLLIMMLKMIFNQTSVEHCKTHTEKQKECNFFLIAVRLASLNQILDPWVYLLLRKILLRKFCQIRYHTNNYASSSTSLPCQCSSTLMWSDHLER
The data set can be described thus: FLIPR calcium signal, hEP3A/Gqi5. Format: cell-based. The note with it: HEK-293(EBNA) cells, read-out: OTHER RECEPTORS Ca2+ EC50: EP3. As for the experimental part:
as §7, §8, §9
(§10) Compounds are tested in a high-throughput (HTS) or concentration-response (CoRe) format. […]

In the next data set the target is T4, EP2 receptor (Homo sapiens, UniProt P43116).
T4 construct: expressed in transfected cells; membrane fraction
T4 sequence (P43116 whole entry): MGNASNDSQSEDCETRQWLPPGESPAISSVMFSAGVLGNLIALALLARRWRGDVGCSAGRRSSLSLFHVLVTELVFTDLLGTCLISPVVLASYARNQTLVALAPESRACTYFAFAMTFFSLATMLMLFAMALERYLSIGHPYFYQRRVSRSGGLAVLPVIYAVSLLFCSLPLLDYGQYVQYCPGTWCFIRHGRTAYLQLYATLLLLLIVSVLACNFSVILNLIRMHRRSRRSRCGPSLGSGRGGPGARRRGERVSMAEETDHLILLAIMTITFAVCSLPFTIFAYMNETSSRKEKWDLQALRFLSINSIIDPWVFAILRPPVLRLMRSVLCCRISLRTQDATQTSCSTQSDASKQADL
The data set can be described thus: Radioligand binding, EP2 receptor. Conditions: [3H]PGE2 competition, HEK-293 membranes. On the procedure:
as §4, §5, §6

In a further data set the target is T5, hEP2/Gqs5 (Homo sapiens, UniProt P43116).
T5 construct: expressed in transfected cells
T5 sequence (P43116 whole entry): as above
The data set is described as follows: FLIPR calcium signal, hEP2/Gqs5. The data set is classed as cell-based. The note with it: HEK-293(EBNA) cells, read-out: EP2 Ca2+ EC50. As for the experimental part:
as §7, §8, §9, §10

T2 sequence (P35408 whole entry): as the sequence (P35408 whole entry) above

Consider `CC1(C)C(=O)[C@H](C/C=C\CCCC(=O)O)[C@@H](/C=C/C(O)CCc2ccc3ccccc3c2)[C@@H]1O` (stereo partly drawn), for which the “Dog Max ΔIOP” value in the data set with Beagle dogs [1] was 2 mm Hg. In addition, the “Monkey Max ΔIOP” value in the data set with cynomolgus monkeys is 8 mm Hg. The “Dog Max Hyperemia” value in the data set with Beagle dogs [2] was determined as 1.3. Moreover, the “Rabbit Max Hyperemia” value in the data set with rabbit came to 0.1.
For the molecule `CC1(C)C(=O)[C@H](C/C=C\CCCC(=O)O)[C@@H](/C=C/C(O)CCc2ccc3ccccc3c2)[C@@H]1O` (single isomer, unassigned) [drawing 23], the inhibition constant (Ki) on EP4 receptor was 14 nM; on EP2 receptor, greater than 10 µM. Also, the EC50 at hEP4/Gqs5 is 0.17 nM; at hEP3A/Gqi5 it was 4020 nM; on hEP2/Gqs5, greater than 10 µM.
For `CC1(C)C(=O)[C@H](C/C=C\CCCC(=O)O)[C@@H](/C=C/C(O)CCc2ccc3ccccc3c2)[C@@H]1O` (single isomer, unassigned) [drawing 24], the Ki at EP4 receptor worked out at 111 nM; on EP2 receptor, 16.9 µM. The EC50 was 1.3 nM on hEP4/Gqs5, 1020 nM on hEP3A/Gqi5 and greater than 10 µM on hEP2/Gqs5.
At EP4 receptor, `CC1(C)C(=O)[C@H](CC#CCCCC(=O)O)[C@@H](/C=C/C(O)CCc2ccc3ccccc3c2)[C@@H]1O` (single isomer, unassigned) [drawing 26] registered a Ki of 1860 nM. Further, the EC50 is 8 nM at hEP4/Gqs5 and greater than 10 µM on hEP2/Gqs5.
`CC1(C)C(=O)[C@H](CC#CCCCC(=O)O)[C@@H](/C=C/C(O)CCc2ccc3ccccc3c2)[C@@H]1O` (single isomer, unassigned) [drawing 25]: the Ki at EP4 receptor was 1240 nM; at EP2 receptor it was 36.2 µM. Moreover, the figures for the EC50 at hEP4/Gqs5 and on hEP3A/Gqi5 were 16.3 nM and 1020 nM, respectively.

The values above are taken from patent US7439386B2, “Therapeutic substituted cyclopentanones” (Allergan, Inc., priority 2005, dated 2008).
